# Assays:
# [1] = test system: rats subjected to MCAO; assay: Post Stroke Recovery MCAO Model: Forepaw Asymmetry (Cylinder Test); type: in vivo, rat; conditions: low dose, 14 days after stroke
# Source text: Adult male Wistar rats are pre-trained on a battery of behavioral tests including: tray reach, […], forelimb asymmetry (cylinder bracing), forelimb inhibition (swim test) (see below for detailed description of tests). Following pre-stroke behavioral assessment the rats receive surgery during which a stroke is induced. The rats are pseudo-randomly divided into 5 equal groups (n=12) ensuring an equal number of right and left strokes within each treatment group. The first group receives sham surgery with vehicle as treatment. Administration of the test compound and vehicle (dose, route, timing) is determined by the sponsor. The core body temperature is maintained at 37° C. (+/-1°). Following surgery all animals are behaviorally assessed 1, 7, and 14 d post-stroke. At the conclusion of behavioral assessment all rats undergo an MRI to determine infarct volume. […] Rectal temperature is monitored and maintained at 37 C+/-1° C. for the duration of the surgery and until the rat is awake and mobile (approximately 3 hr). […] Forepaw asymmetry of the animals is measured by placing a rat into a clear acrylic cylinder 25 cm in diameter. […] The first paw that touches the cylinder wall during the rear is counted. […]
# [2] = test system: rats subjected to MCAO; assay: Post Stroke Recovery MCAO Model: Forelimb Inhibition (Swimming Test); type: in vivo, rat; conditions: 7 and 14 days after stroke
# Source text: Adult male Wistar rats are pre-trained on a battery of behavioral tests including: tray reach, […], forelimb asymmetry (cylinder bracing), forelimb inhibition (swim test) (see below for detailed description of tests). Following pre-stroke behavioral assessment the rats receive surgery during which a stroke is induced. The rats are pseudo-randomly divided into 5 equal groups (n=12) ensuring an equal number of right and left strokes within each treatment group. The first group receives sham surgery with vehicle as treatment. Administration of the test compound and vehicle (dose, route, timing) is determined by the sponsor. The core body temperature is maintained at 37° C. (+/-1°). Following surgery all animals are behaviorally assessed 1, 7, and 14 d post-stroke. At the conclusion of behavioral assessment all rats undergo an MRI to determine infarct volume. Group behavioral performance and stroke volume are compared between groups using one way analysis of variance to determine therapeutic benefit of the compound in rate and extent of recovery of function following MCAO stroke. […] Rectal temperature is monitored and maintained at 37 C+/-1° C. for the duration of the surgery and until the rat is awake and mobile (approximately 3 hr). […] Inhibition of the forelimbs is assessed by filming animals during swimming. […] Only the mid 80% of the length is scored. […]
compound,measurement,setting,value
"Cc1nc(-c2ccccc2Cl)nc(Nc2n[nH]c3ncc(F)cc23)c1C [Compound I-1, N-(2-(2-chlorophenyl)-5,6-dimethylpyrimidin-4-yl)-5-fluoro-1H-pyrazolo[3,4-b]pyridin-3-amine]",deficit in forepaw asymmetry (cylinder test),[1],significantly ameliorated this deficit
same,deficit in forelimb inhibition (swimming test),[2],significantly ameliorated this deficit

# Source: patent publication US8518953B2, “Aminopyrimidines useful as inhibitors of protein kinases” (Vertex Pharmaceuticals Incorporated, priority 2007, dated 2013)
